From article PMC3501516, “Anti-Diabetic Efficacy and Impact on Amino Acid Metabolism of GRA1, a Novel Small-Molecule Glucagon Receptor Antagonist” (PLoS ONE, 2012)
Where two headings read alike, the source gives them in different places.

How the values were obtained:
[1] = Pharmacokinetics / plasma GRA1 concentrations in hGCGR mice; format: in vivo, hGCGR mouse; conditions: single oral dose 2 mg/kg
[2] = hGCGR.ob/ob mice, 10 mg/kg•day food admixture, 5 weeks
[3] = tested on: primary human hepatocytes; assay: Glucagon-stimulated glycogenolysis in primary human hepatocytes; format: cell-based; conditions: 1 h
Method: Figure 1 GRA1 inhibits glucagon-mediated glycogenolysis in vitro and ex-vivo. (A) The chemical structure of GRA1. (B) Dose-dependent inhibition of glucagon-stimulated glycogenolysis in human hepatocytes. The cells were pretreated for 3 h with 200 nM insulin and then challenged with 2 nM glucagon with vehicle (Veh, medium with 1% DMSO) or 0.3–10 µM GRA1. Glycogen content was measured after incubating for 1 h. *p<0.05 and **p<0.01 vs. glucagon+vehicle alone. (C) Inhibition of glucagon-stimulated glycogenolysis in perfused liver prepared from the hGCGR mouse. Livers were perfused with Ringers solution containing 6.7 mM [2-^13C]pyruvate while ^13C content (indicative of accumulated [^13C]glycogen) was monitored dynamically by nuclear magnetic resonance imaging. At time = −22 min, 0.1–3.0 uM GRA1 or vehicle was added to the perfusate; 50 pM glucagon or vehicle was added at time 0. The data are means ±SEM.
Transfected Chinese hamster ovary (CHO) cell lines were acquired and maintained as previously described, [20]. These included separate cell lines stably expressing human GCGR (hGCGR), mouse GCGR, rhesus GGCR, glucose-dependent insulinotropic peptide receptor (GIPR), GLP-1 receptor (GLP-1R), pituitary adenylate cyclase-activating polypeptide receptor type 1 (PAC1R), and vasoactive adenylate cyclase-activating polypeptide receptor type 2 (VPAC2R). […]

in vivo = conditions: hGCGR.ob/ob, mouse, 3 mg/kg
rhesus monkey = assay: Blunting of glucagon-induced blood glucose excursion in rhesus monkey; format: in vivo; conditions: 1 mg/kg 4 h before 15 µg/kg glucagon i.m.
Method: In mouse studies of glucagon-induced excursions in blood glucose, animals were dosed orally with vehicle (10 mL/kg 0.5% aqueous methylcellulose) or GRA1 one hour prior to challenge by intraperitoneal injection of 15 µg/kg glucagon (Eli Lilly, Indianapolis, IN) or vehicle, [20]. In the studies in monkey, GRA1 or vehicle was administered to chair-restrained animals via a nasogastric tube 4 h prior to intramuscular injection of 15 µg/kg glucagon. Blood glucose measurements were made using a OneTouch glucometer (Lifescan, Milpitas, CA).
Figure 3 Blunting of glucagon-induced blood glucose excursions by GRA1 treatment in the (A) hGCGR mouse and (B) rhesus monkey. In (A), mice (n = 8) were administered vehicle or 3, 10 or 30 mg/kg GRA1, then challenged 1 h later (time 0) by intraperitoneal injection of 15 µg/kg glucagon or vehicle. Pharmacokinetic analysis determined that these animals had mean plasma GRA1 concentrations of 0.4, 0.9, and 4.7 µM, respectively, at 1 h postdose. In (B), monkeys (n = 4) were administered 1 mg/kg GRA1 4 h prior to intramuscular injection of 15 µg/kg glucagon or vehicle. At 1 h postdose, the mean plasma GRA1 concentration in these animals was 0.2 µM. *p<0.05; **p<0.01; and ***p<0.001 vs. glucagon-treated control animals.

rhesus GCGR = target: T1, rhesus GCGR (Macaca mulatta, UniProt A0A1D5QZY8); assay: Inhibition of glucagon-stimulated cAMP production in CHO cells expressing rhesus GCGR; format: cell-based
T1 construct: expressed in transfected cells
T1 sequence (A0A1D5QZY8 27-491): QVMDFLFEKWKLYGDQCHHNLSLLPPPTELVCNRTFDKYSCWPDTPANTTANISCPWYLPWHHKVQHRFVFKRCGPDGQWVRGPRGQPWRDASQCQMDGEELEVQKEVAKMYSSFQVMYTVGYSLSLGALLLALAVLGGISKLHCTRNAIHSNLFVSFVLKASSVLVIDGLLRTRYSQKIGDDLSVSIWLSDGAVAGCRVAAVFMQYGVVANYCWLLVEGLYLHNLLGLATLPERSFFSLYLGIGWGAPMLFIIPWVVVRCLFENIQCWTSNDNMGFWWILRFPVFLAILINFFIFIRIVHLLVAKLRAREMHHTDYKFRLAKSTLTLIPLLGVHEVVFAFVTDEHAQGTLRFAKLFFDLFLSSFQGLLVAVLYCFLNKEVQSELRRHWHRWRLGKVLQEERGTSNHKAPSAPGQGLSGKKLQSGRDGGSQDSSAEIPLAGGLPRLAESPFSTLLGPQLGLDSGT
Method: Transfected Chinese hamster ovary (CHO) cell lines were acquired and maintained as previously described [17], [20]. These included separate cell lines stably expressing human GCGR (hGCGR), mouse GCGR, rhesus GGCR, glucose-dependent insulinotropic peptide receptor (GIPR), GLP-1 receptor (GLP-1R), pituitary adenylate cyclase-activating polypeptide receptor type 1 (PAC1R), and vasoactive adenylate cyclase-activating polypeptide receptor type 2 (VPAC2R). […] Functional antagonism was assayed by measuring the production of cAMP in intact CHO cells stimulated by agonists specific for their cognate receptors (i.e., glucagon for GCGR-expressing cell lines, GIP for the GIPR-expressing line, etc.).

Q: With `COc1ccc2cc(-c3cc(-c4cc(C(F)(F)F)ccc4F)nn3[C@@H](C)c3ccc(C(=O)NCCC(=O)O)cc3)ccc2c1` [GRA1, N-[4-((1S)-1-{3-(2-fluoro-5-trifluoromethylphenyl)-5-[6-methoxynaphth-2-yl]-1H-pyrazol-1-yl}ethyl)benzoyl]-β-alanine] as the compound, how does the half-life ([1]; mouse, plasma, read-out: Apparent plasma terminal half-life (converted)) read?
A: 6.8 h

Q: What about the “Mean rate of absorption from the gut” value [1] of the same compound?
A: 69%

Q: What about the Route of excretion [1] of the same compound?
A: nearly all absorbed drug was subsequently excreted unchanged via the bile

Q: And the “Mean GRA1 plasma concentration” value ([2]; 4 PM)?
A: 0.77 ± 0.2 µM

Q: What about the “Mean GRA1 plasma concentration” value ([2]; 9AM) of the same compound?
A: 1.7 ± 0.5 µM

Q: And the “Inhibition of glucagon-induced glycogen loss” value ([3]; 10 µM GRA1, 2 nM glucagon)?
A: completely prevented

Q: And the inhibition at 0.3 µM ([3]; Homo sapiens, Hepatocyte, 0.3 µM GRA1, 2 nM glucagon, read-out: Inhibition of glucagon-induced glycogen loss)?
A: ~50%

Q: What about the concentration at 1 h (in vivo) of the same compound?
A: 1120 ± 800 nM

Q: What about the concentration at 3 h (in vivo) of the same compound?
A: 920 ± 100 nM

Q: What about the “Reduction of magnitude of glucagon-stimulated blood glucose excursion” value (rhesus monkey) of the same compound?
A: about 50%

Q: What about the IC50 (rhesus GCGR) of the same compound?
A: 15 nM
